Test results taken from ChEMBL document CHEMBL6083183, “Discovery and Hit to Lead Optimization of Macrocyclic Peptides as Novel Tropomyosin Receptor Kinase A Antagonists” (J Med Chem, 2024).
Activity calls are given as the source filed them. The calls are words filed in the database; no cut-off is given here. Bridge positions count the residues as written; N and C are the ends. Square brackets hold non-standard residues; d marks the D form. Peptide text beside a SMILES is read from it. NMeY = CN[C@@H](Cc1ccc(O)cc1)C(=O)O; NMeF = CN[C@@H](Cc1ccccc1)C(=O)O; NMeN = CN[C@@H](CC(N)=O)C(=O)O; NMeL = CN[C@@H](CC(C)C)C(=O)O; NMeS = CN[C@@H](CO)C(=O)O; Sar = CNCC(=O)O

Columns and labels:
[1] = target: T1, High affinity nerve growth factor receptor (Homo sapiens, UniProt P04629); test: Inhibition of human TrkA assessed as beta-galactosidase activity pretreated with NGF followed by […] and measured after 180 mins by pathhunter assay
T1 sequence (P04629 whole entry): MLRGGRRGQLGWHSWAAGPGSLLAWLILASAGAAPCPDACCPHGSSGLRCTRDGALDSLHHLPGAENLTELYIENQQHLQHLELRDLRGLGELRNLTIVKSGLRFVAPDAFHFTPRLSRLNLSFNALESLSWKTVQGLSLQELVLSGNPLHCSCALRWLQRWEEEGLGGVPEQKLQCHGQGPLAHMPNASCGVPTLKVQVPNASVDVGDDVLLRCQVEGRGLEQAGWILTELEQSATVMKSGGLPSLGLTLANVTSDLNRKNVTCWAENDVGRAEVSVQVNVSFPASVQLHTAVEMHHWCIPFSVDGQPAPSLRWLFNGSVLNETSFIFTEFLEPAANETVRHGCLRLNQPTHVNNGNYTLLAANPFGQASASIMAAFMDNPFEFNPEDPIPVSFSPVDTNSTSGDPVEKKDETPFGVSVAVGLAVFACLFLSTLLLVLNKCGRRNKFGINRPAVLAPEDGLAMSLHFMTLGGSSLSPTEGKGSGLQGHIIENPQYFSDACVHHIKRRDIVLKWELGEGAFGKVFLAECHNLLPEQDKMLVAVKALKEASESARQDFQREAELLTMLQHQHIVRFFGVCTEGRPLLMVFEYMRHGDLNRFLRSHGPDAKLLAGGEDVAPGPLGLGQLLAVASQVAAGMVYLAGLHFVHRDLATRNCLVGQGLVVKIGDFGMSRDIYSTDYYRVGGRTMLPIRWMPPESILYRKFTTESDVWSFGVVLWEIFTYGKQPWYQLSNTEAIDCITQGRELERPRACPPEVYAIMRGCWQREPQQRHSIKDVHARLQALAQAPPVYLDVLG

[2] = Stability in human serum assessed as half-life incubated for 22 to 24 hrs by LC-MS/MS method; assay type: ADME, cell-free; details: time 22-24 hrs
[3] = Stability in rat serum assessed as half-life incubated for 22 to 24 hrs by LC-MS/MS method; assay type: ADME, cell-free; details: time 22-24 hrs
[4] = AUC in Sprague-Dawley rat at 1 umol/kg, iv administered as cassette dose measured upto 6 hrs by LC-MS/MS method; assay type: ADME, organism-based; details: in vivo, dose 1 µmol/kg
[5] = Total clearance in Sprague-Dawley rat at 1 umol/kg, iv administered as cassette dose measured upto 6 hrs by LC-MS/MS method; assay type: ADME, organism-based; details: in vivo, dose 1 µmol/kg
[6] = target: T1, High affinity nerve growth factor receptor; test: Binding affinity to Fc-tagged human TrkA extracellular domain by SPR method
[7] = organism: Homo sapiens; test: Inhibition of Fc-tagged human TrkA extracellular domain to biotinylated human NGF protein-protein interaction preincubated for 1 hr followed by NGF addition and measured after 3 hrs by ELISA; details: time 4.0 hrs
[8] = tested on: Rattus norvegicus; test: Analgesic activity in iv dosed rat Brennan's incision pain model assessed as reduction in pain measured after 15 mins; assay type: functional, organism-based; details: dose 0.5-1 mg/kg

SMILES	IC50 [1] [nM]	further results
CC(C)C[C@@H]1NC(=O)[C@H](CC(N)=O)NC(=O)CNC(=O)[C@H](Cc2ccccc2)N(C)C(=O)CNC(=O)[C@H](Cc2c[nH]c3ccccc23)NC(=O)[C@H](Cc2ccc(O)cc2)NC(=O)[C@H](CO)NC(=O)[C@H](C(C)C)NC(=O)[C@H](CO)NC(=O)[C@H](CO)N(C)C(=O)[C@H](Cc2ccccc2)NC(=O)CSC[C@@H](C(=O)NCC(N)=O)NC(=O)[C@H](Cc2c[nH]cn2)NC(=O)[C@H](CC(N)=O)NC(=O)[C@H](Cc2ccc(O)cc2)NC(=O)[C@H](Cc2c[nH]c3ccccc23)NC(=O)[C@H](C(C)C)NC1=O ({CH2CO}-F[NMeS]SVSYWG[NMeF]GNLVWYNHCG-NH2; thioether N-18)	13	
CC(C)C[C@@H]1NC(=O)[C@H](CC(N)=O)NC(=O)CNC(=O)[C@H](Cc2ccccc2)N(C)C(=O)CNC(=O)[C@H](Cc2c[nH]c3ccccc23)NC(=O)[C@H](Cc2ccc(O)cc2)NC(=O)[C@H](CO)NC(=O)[C@H](C(C)C)NC(=O)[C@H](CO)NC(=O)[C@H](CO)NC(=O)[C@H](Cc2ccccc2)NC(=O)CSC[C@@H](C(=O)N(C)CC(N)=O)NC(=O)[C@H](Cc2c[nH]cn2)NC(=O)[C@H](CC(N)=O)NC(=O)[C@H](Cc2ccc(O)cc2)NC(=O)[C@H](Cc2c[nH]c3ccccc23)NC(=O)[C@H](C(C)C)NC1=O ({CH2CO}-FSSVSYWG[NMeF]GNLVWYNHC[Sar]-NH2; thioether N-18)	15	
CC(C)C[C@@H]1NC(=O)[C@H](CCCNC(=N)N)NC(=O)CNC(=O)[C@H](Cc2ccccc2)N(C)C(=O)CNC(=O)[C@H](Cc2c[nH]c3ccccc23)NC(=O)[C@H](Cc2ccc(O)cc2)NC(=O)[C@H](CCC(=O)O)NC(=O)[C@H](C(C)C)NC(=O)[C@H](CO)NC(=O)[C@H](CCCCN)NC(=O)[C@H](Cc2ccccc2)NC(=O)CSC[C@@H](C(=O)N(C)CC(N)=O)NC(=O)[C@H](Cc2c[nH]cn2)NC(=O)[C@H](CC(=O)O)NC(=O)[C@H](Cc2ccc(O)cc2)NC(=O)[C@H](Cc2ccc(O)cc2)NC(=O)[C@H](CCCCN)NC1=O ({CH2CO}-FKSVEYWG[NMeF]GRLKYYDHC[Sar]-NH2; thioether N-18)	35	half-life [2]: 2.5 h; half-life [3]: 32 h
CC(C)C[C@@H]1NC(=O)[C@H](CC(N)=O)NC(=O)CNC(=O)[C@H](Cc2ccccc2)N(C)C(=O)CNC(=O)[C@H](Cc2c[nH]c3ccccc23)NC(=O)[C@H](Cc2ccc(O)cc2)NC(=O)[C@H](CO)NC(=O)[C@H](C(C)C)NC(=O)[C@H](CO)NC(=O)[C@H](CO)NC(=O)[C@H](Cc2ccccc2)NC(=O)CSC[C@@H](C(=O)NCC(N)=O)NC(=O)[C@H](Cc2c[nH]cn2)NC(=O)[C@H](CC(N)=O)NC(=O)[C@H](Cc2ccc(O)cc2)NC(=O)[C@H](Cc2c[nH]c3ccccc23)NC(=O)[C@H](C(C)C)NC1=O ({CH2CO}-FSSVSYWG[NMeF]GNLVWYNHCG-NH2; thioether N-18)	41	
CC(C)C[C@@H]1NC(=O)[C@H](CC(N)=O)NC(=O)CNC(=O)[C@H](Cc2ccccc2)N(C)C(=O)CNC(=O)[C@H](Cc2c[nH]c3ccccc23)NC(=O)[C@H](Cc2ccc(O)cc2)NC(=O)[C@H](C)NC(=O)[C@H](C(C)C)NC(=O)[C@H](CO)NC(=O)[C@H](CO)NC(=O)[C@H](Cc2ccccc2)NC(=O)CSC[C@@H](C(=O)NCC(N)=O)NC(=O)[C@H](Cc2c[nH]cn2)NC(=O)[C@H](CC(N)=O)NC(=O)[C@H](Cc2ccc(O)cc2)NC(=O)[C@H](Cc2ccc(O)cc2)NC(=O)[C@H](C(C)C)NC1=O ({CH2CO}-FSSVAYWG[NMeF]GNLVYYNHCG-NH2; thioether N-18)	26	
CC(C)C[C@@H]1NC(=O)[C@H](CCCNC(=N)N)NC(=O)CNC(=O)[C@H](Cc2ccccc2)N(C)C(=O)CNC(=O)[C@H](Cc2c[nH]c3ccccc23)NC(=O)[C@H](Cc2ccc(O)cc2)NC(=O)[C@H](CO)NC(=O)[C@H](C(C)C)NC(=O)[C@H](CO)NC(=O)[C@H](CCCCN)NC(=O)[C@H](Cc2ccccc2)NC(=O)CSC[C@@H](C(=O)N(C)CC(N)=O)NC(=O)[C@H](Cc2c[nH]cn2)NC(=O)[C@H](CC(N)=O)NC(=O)[C@H](Cc2ccc(O)cc2)NC(=O)[C@H](Cc2ccc(O)cc2)NC(=O)[C@H](CCCCN)NC1=O ({CH2CO}-FKSVSYWG[NMeF]GRLKYYNHC[Sar]-NH2; thioether N-18)	22	half-life [2]: 2.9 h; half-life [3]: 4.5 h
CC(C)C[C@@H]1NC(=O)[C@H](CC(N)=O)NC(=O)CNC(=O)[C@H](Cc2ccccc2)N(C)C(=O)CNC(=O)[C@H](Cc2c[nH]c3ccccc23)NC(=O)[C@H](Cc2ccc(O)cc2)NC(=O)[C@H](CO)NC(=O)[C@H](C(C)C)NC(=O)[C@H](CO)NC(=O)[C@H](CO)NC(=O)[C@H](Cc2ccccc2)NC(=O)CSC[C@@H](C(=O)NCC(N)=O)NC(=O)[C@H](Cc2cnc[nH]2)NC(=O)[C@H](CC(=O)O)NC(=O)[C@H](Cc2ccc(O)cc2)NC(=O)[C@H](Cc2ccc(O)cc2)NC(=O)[C@H](C(C)C)NC1=O ({CH2CO}-FSSVSYWG[NMeF]GNLVYYDHCG-NH2; thioether N-18)	24	
CC(C)C[C@@H]1NC(=O)[C@H](CC(N)=O)NC(=O)CNC(=O)[C@H](Cc2ccccc2)N(C)C(=O)CNC(=O)[C@H](Cc2c[nH]c3ccccc23)NC(=O)[C@H](Cc2ccc(O)cc2)NC(=O)[C@H](CO)NC(=O)[C@H](C(C)C)NC(=O)[C@H](CO)NC(=O)[C@H](CO)NC(=O)[C@H](Cc2ccccc2)NC(=O)CSC[C@@H](C(=O)NCC(N)=O)NC(=O)[C@H](Cc2c[nH]cn2)NC(=O)[C@H](CO)NC(=O)[C@H](Cc2ccc(O)cc2)NC(=O)[C@H](Cc2ccc(O)cc2)NC(=O)[C@H](C(C)C)NC1=O ({CH2CO}-FSSVSYWG[NMeF]GNLVYYSHCG-NH2; thioether N-18)	186	
CC(C)C[C@@H]1NC(=O)[C@H](CC(N)=O)NC(=O)CNC(=O)[C@H](Cc2ccccc2)N(C)C(=O)CNC(=O)[C@H](Cc2c[nH]c3ccccc23)NC(=O)[C@H](Cc2ccc(O)cc2)NC(=O)[C@H](CO)NC(=O)[C@H](C(C)C)NC(=O)[C@H](CO)NC(=O)[C@H](CO)NC(=O)[C@H](Cc2ccccc2)NC(=O)CSC[C@@H](C(=O)NCC(N)=O)NC(=O)[C@H](Cc2c[nH]cn2)NC(=O)[C@H](CC(N)=O)NC(=O)[C@H](Cc2ccc(O)cc2)NC(=O)[C@H](Cc2ccc(O)cc2)NC(=O)[C@H](C(C)C)NC1=O ({CH2CO}-FSSVSYWG[NMeF]GNLVYYNHCG-NH2; thioether N-18)	6	
CC[C@H](C)[C@@H]1NC(=O)CNC(=O)[C@H](Cc2ccccc2)N(C)C(=O)CNC(=O)[C@H](Cc2c[nH]c3ccccc23)NC(=O)[C@H](Cc2ccc(O)cc2)NC(=O)[C@H](CCC(=O)O)NC(=O)[C@H](C(C)C)NC(=O)[C@H](CO)NC(=O)[C@H](CO)NC(=O)[C@H](Cc2ccccc2)NC(=O)CSC[C@@H](C(=O)NCC(N)=O)NC(=O)[C@H](Cc2cnc[nH]2)NC(=O)[C@H](CC(=O)O)NC(=O)[C@H](Cc2ccc(O)cc2)NC(=O)[C@H](Cc2c[nH]c3ccccc23)NC(=O)[C@H](CCC(=O)O)NC(=O)[C@H](CC(C)C)NC1=O ({CH2CO}-FSSVEYWG[NMeF]GILEWYDHCG-NH2; thioether N-18)	34	AUC at 6 h [4]: 0.786 µM·h; half-life [2]: > 72 h; clearance [5]: 21.3 mL/min/kg; half-life [3]: > 72 h
CC[C@H](C)[C@@H]1NC(=O)CNC(=O)[C@H](Cc2ccc(O)cc2)NC(=O)[C@H](Cc2ccccc2)NC(=O)CNC(=O)[C@H](Cc2c[nH]cn2)NC(=O)[C@@H]2CCCN2C(=O)[C@H](Cc2ccc(O)cc2)NC(=O)[C@H](CC(C)C)NC(=O)[C@H](Cc2ccccc2)NC(=O)[C@H](Cc2ccccc2)NC(=O)CSC[C@@H](C(=O)NCC(N)=O)NC(=O)[C@H](C(C)C)NC1=O ({CH2CO}-FFLYPHGFYGIVCG-NH2; thioether N-13)		Kd [6]: 8.5 nM; inhibition [7]: inactive
CC(C)C[C@@H]1NC(=O)[C@H](CC(N)=O)NC(=O)CNC(=O)[C@H](Cc2ccccc2)N(C)C(=O)CNC(=O)[C@H](Cc2c[nH]c3ccccc23)NC(=O)[C@H](Cc2ccc(O)cc2)NC(=O)[C@H](CO)NC(=O)[C@H](C(C)C)NC(=O)[C@H](CO)NC(=O)[C@H](CO)NC(=O)[C@H](Cc2ccccc2)NC(=O)CSC[C@@H](C(=O)NCC(N)=O)NC(=O)[C@H](Cc2c[nH]cn2)NC(=O)[C@H](CC(N)=O)N(C)C(=O)[C@H](Cc2ccc(O)cc2)NC(=O)[C@H](Cc2c[nH]c3ccccc23)NC(=O)[C@H](C(C)C)NC1=O ({CH2CO}-FSSVSYWG[NMeF]GNLVWY[NMeN]HCG-NH2; thioether N-18)	48	
CC(C)C[C@@H]1NC(=O)[C@H](CC(N)=O)NC(=O)CNC(=O)[C@H](Cc2ccccc2)N(C)C(=O)CNC(=O)[C@H](Cc2c[nH]c3ccccc23)NC(=O)[C@H](Cc2ccc(O)cc2)N(C)C(=O)[C@H](CO)NC(=O)[C@H](C(C)C)NC(=O)[C@H](CO)NC(=O)[C@H](CO)NC(=O)[C@H](Cc2ccccc2)NC(=O)CSC[C@@H](C(=O)NCC(N)=O)NC(=O)[C@H](Cc2c[nH]cn2)NC(=O)[C@H](CC(N)=O)NC(=O)[C@H](Cc2ccc(O)cc2)NC(=O)[C@H](Cc2c[nH]c3ccccc23)NC(=O)[C@H](C(C)C)NC1=O ({CH2CO}-FSSVS[NMeY]WG[NMeF]GNLVWYNHCG-NH2; thioether N-18)	22	
CC(C)C[C@H]1C(=O)N[C@@H](C(C)C)C(=O)N[C@@H](Cc2c[nH]c3ccccc23)C(=O)N[C@@H](Cc2ccc(O)cc2)C(=O)N[C@@H](CC(N)=O)C(=O)N[C@@H](Cc2c[nH]cn2)C(=O)N[C@H](C(=O)NCC(N)=O)CSCC(=O)N[C@@H](Cc2ccccc2)C(=O)N[C@@H](CO)C(=O)N[C@@H](CO)C(=O)N[C@@H](C(C)C)C(=O)N[C@@H](CO)C(=O)N[C@@H](Cc2ccc(O)cc2)C(=O)N[C@@H](Cc2c[nH]c3ccccc23)C(=O)NCC(=O)N(C)[C@@H](Cc2ccccc2)C(=O)NCC(=O)N[C@@H](CC(N)=O)C(=O)N1C ({CH2CO}-FSSVSYWG[NMeF]GN[NMeL]VWYNHCG-NH2; thioether N-18)	81	
CN1CC[C@]23c4c5ccc(O)c4O[C@H]2[C@@H](O)C=C[C@H]3[C@H]1C5		Activity [8]: Dose-dependent-effect
